Several values for one entry are separate records, joined by “and”; a condition that tells them apart may be missing. Identical values can stand only once. Entries after “also recorded” stand apart in the source; their conditions may differ. Like-named read-outs stand apart in the source and are kept apart here.
Columns and labels:
[1] = tested on: peripheral blood mononuclear cells (PBMC); experiment: Induction of apoptosis, annexin V-FITC/propidium iodide flow cytometry, PBMC; type: cell-based, human; settings: increasing concentration, 48 h
Method: (§1) It was determined that the cardiac glycosides (e.g., digoxin and ouabain) selectively induce apoptosis in cancer cells relative to normal non-transformed cells. Through the experiments, some cells were exposed to ultraviolet irradiation as a positive control for induction of apoptosis, whereas cells cultured under normal conditions (95% […]/5% CO2 at 37° C.) acted as the negative control (see Methods). The percentage of counted cells in the lower and upper right hand quadrants are indicative of cells in early and late apoptosis, respectively. The viable cells are at the lower left quadrant. The figures that follow are summaries of data stemming from analysis of percent of cell count undergoing apoptosis as measured in FIG. 1. […]
(§2) Tumor cell lines (5×10^5 cells/well) and PBMC (1×10^6 cells/well) were cultured in 24-well plates in the presence or absence of various concentrations of digoxin or ouabain for 48 h. The cells were harvested, washed twice in PBS, and analyzed for induction of apoptosis by annexin V-FITC/propidium iodide (PI) method (BD Bioscience, Lincoln Park, N.J.) according to the manufacturer's instructions. […] Apoptosis was determined by flow cytometric analyses on a FACScan (BD Biosciences, Lincoln Park, N.J.). Ten thousand cells were analyzed per sample. […]

[2] = tested on: human lymphoblastic cell lines; experiment: Induction of apoptosis in the cancer cell lines (Jurkat and Daudi together); type: cell-based; settings: read-out: concentration needed to induce a 50% apoptotic response
Method: (§3) Tumor cell lines (5×10^5 cells/well) and PBMC (1×10^6 cells/well) were cultured in 24-well plates in the presence or absence of various concentrations of digoxin or ouabain for 48 h. The cells were harvested, washed twice in PBS, and analyzed for induction of apoptosis by annexin V-FITC/propidium iodide (PI) method (BD Bioscience, Lincoln Park, N.J.) according to the manufacturer's instructions. Cells were washed once with 1× binding buffer and stained with annexin V-FITC (5 μL) and PI (10 μL) for 15 minutes in the dark. Apoptosis was determined by flow cytometric analyses on a FACScan (BD Biosciences, Lincoln Park, N.J.). Ten thousand cells were analyzed per sample. In experiments where the effect of PHA was studied, cells were seeded accordingly in a 24-well plate and stimulated with PHA (1 μg/mL) for a minimum of 2 hours before treatment with the indicated concentrations of ouabain or digoxin. As a positive control for apoptosis, cells were exposed to ultra violet irradiation for […] and apoptosis was analyzed according to the method described above.

[3] = tested on: K 562 cells; experiment: Induction of apoptosis, annexin V-FITC/propidium iodide flow cytometry, K 562; type: cell-based, human; settings: increasing concentrations, 48 h
Method: as §1, §2

[4] = tested on: Jurkat cells; experiment: Induction of apoptosis, annexin V-FITC/propidium iodide flow cytometry, Jurkat; type: cell-based, human; settings: for IC50: Homo sapiens, Jurkat; for highest percentage of apoptosis / increase in apoptosis vs untreated control: Jurkat cells; for highest percentage of apoptosis: n=4; for increase in apoptosis vs untreated control: increasing concentration 10 nM-500 nM
Method: (§4) It was determined that the cardiac glycosides (e.g., digoxin and ouabain) selectively induce apoptosis in cancer cells relative to normal non-transformed cells. Through the experiments, some cells were exposed to ultraviolet irradiation as a positive control for induction of apoptosis, whereas cells cultured under normal conditions (95% […]/5% CO2 at 37° C.) acted as the negative control (see Methods). The percentage of counted cells in the lower and upper right hand quadrants are indicative of cells in early and late apoptosis, respectively. The viable cells are at the lower left quadrant. The figures that follow are summaries of data stemming from analysis of percent of cell count undergoing apoptosis as measured in FIG. 1.
(§5) Cell lines used in this study included: Jurkat E6-1, an acute human T-lymphoblastic leukemia cell line generated from a person; Daudi, a human B-lymphoblastoid line derived from Burkitt's lymphoma patient and K 562 derived from a human chronic myelogenous leukemia cell line. All cell lines were maintained in RPMI 1640 medium (Gibco Laboratories, Grand Island, N.Y.) supplemented with 10% fetal calf serum (FCS), 10 mM HEPES, 2 mM glutamine, 50 IU/mL penicillin, 50 μg/mL streptomycin, 0.1 mM non-essential amino acids and 1 mM sodium pyruvate and 0.5 μg/mL amphotericin B. Cells were cultured in a 5% CO2 atmosphere in a thermostatically maintained incubator (37° C.) in standard cell culture flasks. Cell cultures were split every 2-3 days and passage number noted.
as §3

[5] = target: T1, porcine cerebral cortex Na,K-ATPase; type: biochemical
T1 construct: other: 50% response relative to the m
From the text: In the current study, the sensitivity of cardiac glycosides on induction of apoptosis in lymphoblastic cancer cells was examined. The efficacy of digoxin and ouabain in inducing apoptosis in these cell lines was compared with NKA catalytic inhibition activity using porcine cerebral cortex (Table 1). The porcine cerebral cortex (PCC) is a model system known to express the three isoforms of NKA consisting of the three different alpha subunits (α1, α2 and α3) (Rose et al., Clin Chem, 40, 1674-1685 (1994)). The alpha subunit of the NKA contains the binding site of the cardiac glycosides, and like most cationic transporter proteins, the beta subunit act as chaperon, stabilizing the correct assembly of the alpha subunit and facilitating the delivery of the protein to the plasma membrane (Blanco et al., Am J Physiol, 275 (Renal Physiol. 44), F633-F650 (1998)).
In order to compare the concentrations of digoxin or ouabain that affect the induction of apoptosis with those that inhibit the sodium pump, the inhibitory potency of digoxin and ouabain on porcine cerebral cortex (PCC) Na.,K-ATPase catalytic activity was examined.
The values were calculated as 50% response relative to the maximum NKA activity on the PCC or maximum apoptosis on Jurkat and Daudi cells within the concentration ranges tested.
Inhibition of sodium pump catalytic activity by cardiac glycosides was measured by the release of phosphate upon hydrolysis of ATP (Qazzaz et al., Endocrinology, 141, 3200-3209 (2000)).

[6] = tested on: Daudi cells; experiment: Induction of apoptosis, annexin V-FITC/propidium iodide flow cytometry, Daudi; type: cell-based, human; settings: for highest percentage of apoptosis / increase in apoptosis vs untreated control: Daudi cells; for highest percentage of apoptosis: 500 nM, n=4; for increase in apoptosis vs untreated control: increasing concentration; for IC50: Homo sapiens, Daudi
Method: as §4, §5, §3

[7] = tested on: caspase-3 activity in K 562 cells; experiment: DEVD-dependent caspase-3 activity, K 562; type: cell-based, human; settings: 100 nM, 12 h
Method: (§6) Measurement of DEVD-dependent caspase-3 activity is a measure of induction of apoptosis, irrespective of the apoptotic pathway activated. The effect of digoxin (100 nM) to induce activation of caspase-3 activity in these tumor cell lines and as well as normal PBMC was examined. Tumor cells (1×10^7 cell/mL) and PBMC (1×10^7 cells/mL) were exposed to ultraviolet irradiation or digoxin (100 nM) for 12 h. The cells were then analyzed for caspase-3 activation using caspase-3 activation assay kit following the manufacturer's instructions.
(§7) Caspase-3 activity was measured using a caspase-3 assay kit (Sigma-Aldrich Co. St Louis, Mo.). Briefly, tumor cell lines (1×10^7 cells/mL), and PBMC (1×10^7 cells/mL) were cultured in the presence or absence of the indicated concentration of digoxin. Cells were harvested by centrifugation and washed once with PBS. Cells were lysed with lysis buffer (30 mM Tris-HCl, pH 7.5, 150 mM NaCl, 1% Triton X-100, and 10% glycerol) and were centrifuged to remove cell debris, Caspase 3 activity was assayed in the cell lysate according to the manufacturer's instructions. The colorimetric assay is based on spectrophotometric detection of chromophore pNA at 405 nm after cleavage from labelled substrate DEVD-pNA. The level of caspase 3 activity is interpolated from a calibration curve.

[8] = tested on: caspase-3 activity in Daudi cells; experiment: DEVD-dependent caspase-3 activity, Daudi; type: cell-based, human; settings: 100 nM, 12 h
Method: as §6, §7

[9] = tested on: caspase-3 activity in Jurkat cells; experiment: DEVD-dependent caspase-3 activity, Jurkat; type: cell-based, human; settings: 100 nM, 12 h
Method: as §6, §7

[10] = tested on: caspase-3 activity in PBMC; experiment: DEVD-dependent caspase-3 activity, PBMC; type: cell-based, human; settings: 100 nM, 12 h
Method: as §6, §7

[11] = Kometiani et al. 2005; cited from earlier work
[12] = tested on: Jurkat cells; experiment: Apoptosis after PHA stimulation, Jurkat; type: cell-based, human; settings: PHA 1 μg/mL, digoxin 10 nM and 100 nM, 48 h
Method: as §3

[13] = tested on: PBMC; experiment: Apoptosis after PHA stimulation, PBMC; type: cell-based, human; settings: PHA 1 μg/mL, digoxin 10 nM-100 nM, 48 h
Method: as §3

[14] = 50% response relative to maximum apoptosis within the concentration ranges tested, 48 h, read-out: IC50, Induction of apoptosis on acute T-cell lymphoblastic leukemic cells (Jurkat)
[15] = range of the IC50, read-out: Ranges of IC50, Induction of apoptosis on Jurkat
[16] = 50% response relative to the maximum NKA activity on the PCC, read-out: IC50, Inhibitory Potency on Porcine cerebral cortex (PCC) NKA catalytic activity
[17] = range of the IC50, read-out: Range of IC50, Inhibitory Potency on PCC NKA catalytic activity

Structure (SMILES): C[C@@H]1O[C@@H](O[C@H]2C[C@@H](O)[C@]3(CO)[C@H]4[C@H](O)C[C@]5(C)[C@@H](C6=CC(=O)OC6)CC[C@]5(O)[C@@H]4CC[C@]3(O)C2)[C@H](O)[C@H](O)[C@H]1O [Ouabain, ouabain]
- increase in apoptosis vs untreated control [1]: neither digoxin nor ouabain significantly induced apoptosis; also recorded: did not significantly (P>0.05) lead to increase in apoptosis
- EC50 ([2]; based on the maximum apoptosis at 500 nM, for each of the cancer cell lines): 20 to 40 nM
- increase in apoptosis vs untreated control [3]: neither digoxin nor ouabain significantly induced apoptosis; also recorded: did not significantly (P>0.05) lead to increases in apoptosis
- IC50 [4, 14]: 26 nM
- IC50 [4, 15]: 19 to 48 nM
- highest percentage of apoptosis ([4]; 100 nM, 48 h): 47.6±3.9% and 47.6±5.6%
- increase in apoptosis vs untreated control ([4]; 48 h): significantly (P<0.05) led to increases in apoptosis
- IC50 [5, 16]: 600 nM
- IC50 [5, 17]: 550 to 650 nM
- highest percentage of apoptosis ([6]; 48 h): 81.1±6.1%
- increase in apoptosis vs untreated control ([6]; 48 h): significantly (P<0.05) led to increase in apoptosis
- IC50 ([6]; 50% response relative to maximum apoptosis within the concentration ranges tested, 48 h, read-out: IC50, Induction of apoptosis on B-cell Burkitt's lymphoma cells (Daudi)): 40 nM
- IC50 ([6]; range of the IC50, read-out: Ranges of IC50, Induction of apoptosis on Daudi): 36 to 56 nM

Structure (SMILES): C[C@H]1O[C@@H](O[C@H]2[C@@H](O)C[C@H](O[C@H]3[C@@H](O)C[C@H](O[C@H]4CC[C@@]5(C)[C@H](CC[C@@H]6[C@@H]5C[C@@H](O)[C@]5(C)[C@@H](C7=CC(=O)OC7)CC[C@]65O)C4)O[C@@H]3C)O[C@@H]2C)C[C@H](O)[C@@H]1O [Digoxin, digoxin]
- caspase-3 activity relative to the untreated controls [7]: no such increases
- increase in apoptosis vs untreated control [1]: neither digoxin nor ouabain significantly induced apoptosis; also recorded: did not significantly (P>0.05) lead to increase in apoptosis
- caspase-3 activity relative to the untreated controls [8]: 7 fold
- caspase-3 activity relative to the untreated controls [9]: 8 fold
- EC50 [2]: 20 to 40 nM
- increase in apoptosis vs untreated control [3]: neither digoxin nor ouabain significantly induced apoptosis; also recorded: did not significantly (P>0.05) lead to increases in apoptosis
- caspase-3 activity relative to the untreated controls [10]: no such increases
- IC50 [4, 14]: 24 nM
- IC50 [4, 15]: 11 to 56 nM
- highest percentage of apoptosis ([4]; 500 nM, 48 h): 50.2±4.5% and 50.2%±4.5%
- increase in apoptosis vs untreated control ([4]; 48 h): significantly (P<0.05) led to increases in apoptosis
- therapeutic concentrations in blood [11]: approximately 2 nM
- percent of apoptosis in the presence of PHA [12]: synergistically increased
- percent of apoptosis in the presence of PHA ([12]; listed as digoxin): synergistically induced apoptosis; also recorded: synergistically increased
- IC50 [5, 16]: 910 nM
- IC50 [5, 17]: 820 to 1010 nM
- percent of apoptosis in the presence of PHA [13]: No such effect
- percent of apoptosis in the presence of PHA ([13]; listed as digoxin): No such synergistic effect; also recorded: no such synergistic increase
- highest percentage of apoptosis ([6]; 48 h): 83.2±7.3% and 83.2%±7.3%
- increase in apoptosis vs untreated control ([6]; 48 h): significantly (P<0.05) led to increase in apoptosis
- IC50 ([6]; 48 h, read-out: IC50, Induction of apoptosis on B-cell Burkitt's lymphoma cells (Daudi)): 48 nM
- IC50 ([6]; read-out: Ranges of IC50, Induction of apoptosis on Daudi): 35 to 65 nM

Reference: patent US20110319351A1 (priority 2006, published 2011)
